Earlier results in patent US20060239954A1, “Antimicrobial spray for use on pets” (priority 2005, published 2006).

Key:
Conditions in all cases: 0.1% aqueous solution
Staphylococcus aureus = test system: Staphylococcus aureus
Pseudomonas aeruginosa = test system: Pseudomonas aeruginosa
Escherichia coli = test system: Escherichia coli

N=C(NCCCCCCNC(=N)NC(=N)Nc1ccc(Cl)cc1)NC(=N)Nc1ccc(Cl)cc1.O=C(O)[C@H](O)[C@@H](O)[C@H](O)[C@H](O)CO.O=C(O)[C@H](O)[C@@H](O)[C@H](O)[C@H](O)CO [Chlorhexidine gluconate, chlorhexidine gluconate]
bactericidal: bactericidal against Staphylococcus aureus (Staphylococcus aureus) | bactericidal against Pseudomonas aeruginosa (Pseudomonas aeruginosa) | bactericidal against Escherichia coli (Escherichia coli)
